Literature values as cited in PMC5742115, “Pharmacophore Modeling and in Silico/in Vitro Screening for Human Cytochrome P450 11B1 and Cytochrome P450 11B2 Inhibitors” (Frontiers in Chemistry, 2017).
Where two headings read alike, the source gives them in different places.

Legend:
[1] = tested on: CYP11B2; details: reported activity, supplementary Table 1, read-out: CYP11B2 IC50, cited from earlier work
[2] = tested on: CYP11B1; details: reported activity, supplementary Table 1, read-out: CYP11B1 IC50, cited from earlier work

| SMILES | IC50 ([2]; ref Ulmschneider et al., 2005a) | IC50 ([1]; ref Ulmschneider et al., 2005a) | further results |
| --- | --- | --- | --- |
| CCOC(=O)c1cncn1[C@H](C)c1ccccc1 [CHEMBL681, Etomidate] |  |  | IC50 ([1]; ref Dorr et al., 1984): 0.1 nM; IC50 ([1]; ref Roumen et al., 2010): 1.7 nM |
| O=C1CCc2cc(-c3cccnc3)ccc2N1 [CHEMBL62811] |  |  | IC50 ([2]; ref Lucas et al., 2008b): 6750 nM; IC50 ([1]; ref Lucas et al., 2008b): 28 nM |
| O=c1c2ccccc2oc2c(Br)ccc(Cn3ccnc3)c12 [CHEMBL78322] |  |  | IC50 ([2]; ref Gobbi et al., 2013): 6.7 nM; IC50 ([1]; ref Gobbi et al., 2013): 8.5 nM |
| Cc1cncn1Cc1ccc(C#N)cc1 [CHEMBL162496] |  |  | IC50 ([2]; ref Roumen et al., 2010): 141 nM; IC50 ([1]; ref Roumen et al., 2010): 12 nM |
| Brc1ccc2c(c1)CC/C2=C/c1c[nH]cn1 [CHEMBL174579] |  |  | IC50 ([1]; ref Ulmschneider et al., 2005b): 10.3 nM |
| N#Cc1ccc2c(c1)CC/C2=C/c1ncc[nH]1 [CHEMBL175091] |  |  | IC50 ([2]; ref Ulmschneider et al., 2005b): 12.3 nM; IC50 ([1]; ref Ulmschneider et al., 2005b): 35.7 nM |
| Clc1ccc2c(c1)/C(=C/c1cnc[nH]1)CCC2 [CHEMBL175144] |  |  | IC50 ([1]; ref Ulmschneider et al., 2005b): 47.3 nM |
| Clc1ccc2c(c1)CC/C2=C\c1ccncc1 [CHEMBL175554] | 1520 nM | 18 nM |  |
| COc1ccc2c(c1)CC/C2=C/c1ccncc1 [CHEMBL175609] |  | 55 nM |  |
| Clc1ccc2c(c1)CC/C2=C/c1c[nH]cn1 [CHEMBL175688] |  |  | IC50 ([2]; ref Ulmschneider et al., 2005b): 19.5 nM; IC50 ([1]; ref Ulmschneider et al., 2005b): 3.7 nM |
| COc1cccc2c1/C(=C/c1cccnc1)CC2 [CHEMBL175791] | 955 nM | 27 nM |  |
| Clc1ccc2c(c1)CC/C2=C/c1ccncc1 [CHEMBL175799] | 301 nM | 36 nM |  |
| C(=C1/CCc2ccccc21)/c1ccncc1 [CHEMBL175962] |  | 8 nM |  |
| COc1ccc2c(c1)CCC/C2=C\c1ccncc1 [CHEMBL175979] |  | 22 nM |  |
| COc1ccc2c(c1)CC/C2=C/c1cccnc1 [CHEMBL176101] | 790 nM | 26 nM |  |
| Clc1cccc2c1CC/C2=C\c1cccnc1 [CHEMBL176287] | 304 nM | 9 nM |  |
| COc1ccc2c(c1)CC/C2=C\c1cccnc1 [CHEMBL176609] | 1450 nM | 34 nM |  |
| Brc1ccc2c(c1)CC/C2=C\c1cnc[nH]1 [CHEMBL177293] | 1940 nM | 37 nM | IC50 ([1]; ref Ulmschneider et al., 2005b): 92.8 nM |
| C(=C1/CCc2ccccc21)/c1cnc[nH]1 [CHEMBL177468] |  |  | IC50 ([2]; ref Ulmschneider et al., 2005b): 29.5 nM; IC50 ([1]; ref Ulmschneider et al., 2005b): 41 nM |
| C(=C1\CCc2ccccc21)/c1c[nH]cn1 [CHEMBL178036] |  |  | IC50 ([2]; ref Ulmschneider et al., 2005b): 6.1 nM; IC50 ([1]; ref Ulmschneider et al., 2005b): 11 nM |

| SMILES | IC50 ([2]; ref Ulmschneider et al., 2005a) | IC50 ([1]; ref Ulmschneider et al., 2005a) | further results |
| --- | --- | --- | --- |
| Fc1ccc2c(c1)CC/C2=C/c1ccncc1 [CHEMBL179144] |  |  | IC50 ([2]; ref Ulmschneider et al., 2005b): 34 nM; IC50 ([1]; ref Ulmschneider et al., 2005b): 29 nM |
| C(=C1\CCc2ccccc21)/c1ccncc1 [CHEMBL179149] | 931 nM | 18 nM |  |
| Brc1ccc2c(c1)CC/C2=C/c1ccncc1 [CHEMBL179222] | 484 nM | 56 nM |  |
| Fc1ccc2c(c1)CC/C2=C/c1c[nH]cn1 [CHEMBL179247] |  |  | IC50 ([2]; ref Ulmschneider et al., 2005b): 11.2 nM |
| Cc1ccc2c(c1)/C(=C\c1ccncc1)CC2 [CHEMBL192077] |  | 8 nM |  |
| COc1ccc2c(c1)CC/C2=C\c1cncs1 [CHEMBL192155] |  | 17 nM |  |
| CCOc1ccc2cc(-c3cccnc3)ccc2c1 [CHEMBL193343] |  |  | IC50 ([2]; ref Voets et al., 2005): 5420 nM; IC50 ([1]; ref Voets et al., 2005): 12 nM |
| COc1ccc2c(c1)CCC/C2=C/c1ccncc1 [CHEMBL193496] |  | 56 nM |  |
| Brc1ccc2cc(-c3cccnc3)ccc2c1 [CHEMBL193534] |  |  | IC50 ([2]; ref Voets et al., 2005): 2940 nM; IC50 ([1]; ref Voets et al., 2005): 15 nM |
| C(=C1/CC(c2ccccc2)c2ccccc21)/c1cccnc1 (stereo not drawn) [CHEMBL193555] |  | 3 nM |  |
| C(=C1/CCCc2ccccc21)/c1cccnc1 [CHEMBL193606] | 715 nM | 22 nM |  |
| Clc1ccc2c(c1)CC/C2=C/c1cccnc1 [CHEMBL193652] | 270 nM | 73 nM |  |
| c1ccc2cc(-c3cnco3)ccc2c1 [CHEMBL193653] |  |  | IC50 ([2]; ref Voets et al., 2005): 805 nM; IC50 ([1]; ref Voets et al., 2005): 12 nM |
| COc1cc2c(cc1OC)/C(=C/c1ccncc1)CCC2 [CHEMBL193858] |  | 11 nM |  |
| COc1ccc2ccc(-c3cccnc3)cc2c1 [CHEMBL193863] |  |  | IC50 ([1]; ref Pinto-Bazurco Mendieta et al., 2013): 68 nM |
| Fc1ccc2c(c1)CC/C2=C\c1cccnc1 [CHEMBL193997] | 311 nM | 7 nM |  |
| C/C(=C1/CCc2cc(F)ccc21)c1cccnc1 [CHEMBL194047] |  |  | IC50 ([2]; ref Ulmschneider et al., 2005b): 96 nM |
| Brc1ccc2c(c1)CC/C2=C\c1cccnc1 [CHEMBL194440] | 320 nM | 171 nM |  |
| COc1cc2ccccc2cc1-n1ccnc1 [CHEMBL194472] |  |  | IC50 ([2]; ref Voets et al., 2005): 81 nM; IC50 ([1]; ref Voets et al., 2005): 19 nM |
